Biological target: T1, hMC2 receptor (crude hMC2R membranes from CRE-bla-CHO-K1 cells stably expressing hMC2 receptor and hMRAP accessory protein) (Homo sapiens, UniProt Q01718)
T1 construct: crude membrane fractions
Assay: hMC2 membrane binding assay ([125I]ACTH (1-39) Tyr23, SPA)
Conditions: displacement of 0.2 nM [125I]ACTH (1-39) Tyr23 from hMC2R membranes, 1.5 hours at room temperature; read-out: MC2R binding potency
Method in brief: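 Ki values come from non-linear regression of SPA scintillation counts, with compounds displacing [125I]ACTH(1-39) Tyr23. Membranes come from CRE-bla-CHO-K1 cells stably expressing hMC2 receptor together with hMRAP. They are preincubated with WGA-coated PVT SPA beads in 50 mM HEPES pH 7.4 with 0.20% BSA, Mg2+, Ca2+ and protease inhibitors.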

T1 sequence (Q01718 whole entry): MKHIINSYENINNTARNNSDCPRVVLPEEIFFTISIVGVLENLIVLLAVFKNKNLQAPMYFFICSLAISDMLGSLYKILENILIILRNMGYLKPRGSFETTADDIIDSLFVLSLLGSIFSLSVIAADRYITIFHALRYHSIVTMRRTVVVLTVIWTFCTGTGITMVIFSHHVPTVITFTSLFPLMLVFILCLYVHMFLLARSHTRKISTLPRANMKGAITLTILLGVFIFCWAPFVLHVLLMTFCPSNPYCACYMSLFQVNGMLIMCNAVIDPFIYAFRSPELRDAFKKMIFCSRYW
T1 sequence (Q8TCY5 whole entry partner): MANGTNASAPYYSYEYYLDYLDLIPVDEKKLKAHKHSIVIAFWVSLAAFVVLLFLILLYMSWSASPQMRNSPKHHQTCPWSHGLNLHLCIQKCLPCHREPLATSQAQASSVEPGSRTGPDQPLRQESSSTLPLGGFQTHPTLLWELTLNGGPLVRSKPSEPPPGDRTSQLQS

| SMILES | Ki |
| --- | --- |
| CCOc1ccccc1-c1ccc(C2(C(=O)NCCN(C)C)CCN(c3ccc(C(F)(F)F)cc3Cl)CC2)cn1 [Compound 1-228, 1-[2-chloro-4-(trifluoromethyl)phenyl]-N-[2-(dimethylamino)ethyl]-4-[6-(2-ethoxyphenyl)pyridin-3-yl]piperidine-4-carboxamide] | < 10 nM |
| CCOc1ccccc1-c1ccc(C2(C(=O)NCCNC)CCN(c3ccc(C(F)(F)F)cc3Cl)CC2)cn1 [Compound 1-230, 1-[2-chloro-4-(trifluoromethyl)phenyl]-4-[6-(2-ethoxyphenyl)pyridin-3-yl]-N-[2-(methylamino)ethyl]piperidine-4-carboxamide] | < 10 nM |
| Cn1cccc1-c1ccc(C2(C(=O)NC[C@H]3CCCN3)CCN(c3ccc(C(F)(F)F)cc3C#N)CC2)cn1 [Compound 1-231, 1-[2-cyano-4-(trifluoromethyl)phenyl]-4-[6-(1-methyl-1H-pyrrol-2-yl)pyridin-3-yl]-N-{[(2R)-pyrrolidin-2-yl]methyl}piperidine-4-carboxamide] | < 10 nM |
| CN1CCC[C@@H]1CNC(=O)C1(c2ccc(-c3cccn3C)nc2)CCN(c2ccc(C(F)(F)F)cc2C#N)CC1 [Compound 1-232, 1-[2-cyano-4-(trifluoromethyl)phenyl]-4-[6-(1-methyl-1H-pyrrol-2-yl)pyridin-3-yl]-N-{[(2R)-1-methylpyrrolidin-2-yl]methyl}piperidine-4-carboxamide] | < 10 nM |
| Cn1cccc1-c1ccc(C2(C(=O)N[C@H]3C[C@H](N)C3)CCN(c3ccc(C(F)(F)F)cc3C#N)CC2)cn1 [Compound 1-234, 1-[2-cyano-4-(trifluoromethyl)phenyl]-4-[6-(1-methyl-1H-pyrrol-2-yl)pyridin-3-yl]-N-[(1R,3R)-3-aminocyclobutyl]piperidine-4-carboxamide] | 10 to 100 nM |
| Cn1cccc1-c1ccc(C2(C(=O)NC[C@@H]3CCN3)CCN(c3ccc(C(F)(F)F)cc3C#N)CC2)cn1 [Compound 1-235, N-{[(2S)-azetidin-2-yl]methyl}-1-[2-cyano-4-(trifluoromethyl)phenyl]-4-[6-(1-methyl-1H-pyrrol-2-yl)pyridin-3-yl]piperidine-4-carboxamide] | 10 to 100 nM |
| COc1ccccc1-c1ccc(C2(C(=O)NC[C@H]3CCN3)CCN(c3ccc(C(F)(F)F)cc3C#N)CC2)cn1 [Compound 1-236, N-{[(2R)-azetidin-2-yl]methyl}-1-[2-cyano-4-(trifluoromethyl)phenyl]-4-[6-(2-methoxyphenyl)pyridin-3-yl]piperidine-4-carboxamide] | < 10 nM |

Results, then the compound that gave them:

| Ki | SMILES |
| --- | --- |
| 10 to 100 nM | CN1CCC[C@H]1CNC(=O)C1(c2ccc(-c3cccn3C)nc2)CCN(c2ccc(C(F)(F)F)cc2C#N)CC1 [Compound 1-229, 1-[2-cyano-4-(trifluoromethyl)phenyl]-4-[6-(1-methyl-1H-pyrrol-2-yl)pyridin-3-yl]-N-{[(2S)-1-methylpyrrolidin-2-yl]methyl}piperidine-4-carboxamide] |
| 10 to 100 nM | Cn1cccc1-c1ccc(C2(C(=O)N[C@H]3C[C@@H](N)C3)CCN(c3ccc(C(F)(F)F)cc3C#N)CC2)cn1 [Compound 1-233, 1-[2-cyano-4-(trifluoromethyl)phenyl]-4-[6-(1-methyl-1H-pyrrol-2-yl)pyridin-3-yl]-N-[(1S,3S)-3-aminocyclobutyl]piperidine-4-carboxamide] |
| < 10 nM | COc1ccccc1-c1ccc(C2(C(=O)N[C@@H]3CNC[C@@H]3F)CCN(c3ccc(C(F)(F)F)cc3C#N)CC2)cn1 [Compound 1-237, 1-[2-cyano-4-(trifluoromethyl)phenyl]-N-[(3R,4S)-4-fluoropyrrolidin-3-yl]-4-[6-(2-methoxyphenyl)pyridin-3-yl]piperidine-4-carboxamide] |
| < 10 nM | COc1ccccc1-c1ccc(C2(C(=O)N[C@@H]3CNC[C@H]3F)CCN(c3ccc(C(F)(F)F)cc3C#N)CC2)cn1 [Compound 1-238, 1-[2-cyano-4-(trifluoromethyl)phenyl]-N-[(3R,4R)-4-fluoropyrrolidin-3-yl]-4-[6-(2-methoxyphenyl)pyridin-3-yl]piperidine-4-carboxamide] |

— US12492181B2, “Gem-disubstituted piperidine melanocortin subtype-2 receptor (MC2R) antagonists and uses thereof” (Crinetics Pharmaceuticals, Inc., priority 2019, dated 2025)
